Data as given in the NIST ThermoML archive (doi:10.1021/je060271a).

Conditions: Liquid, Vibrating tube method

CCCC(=O)OCC(COC(=O)CCC)(COC(=O)CCC)COC(=O)CCC [pentaerythritol tetrabutyrate]
Conditions	mass density [kg/m3]
323.14 K, 26626 kPa	1043
323.14 K, 26670 kPa	1042.8
323.14 K, 26714 kPa	1042.8
323.14 K, 26767 kPa	1043
323.14 K, 26810 kPa	1043
323.14 K, 26863 kPa	1043
323.14 K, 26908 kPa	1043.1
323.14 K, 26952 kPa	1043.1
323.14 K, 26996 kPa	1043.1
323.14 K, 27582 kPa	1043.5
323.14 K, 27638 kPa	1043.5
323.14 K, 27684 kPa	1043.6
323.14 K, 27740 kPa	1043.6
323.14 K, 27788 kPa	1043.6
323.14 K, 27834 kPa	1043.6
323.14 K, 27946 kPa	1043.8
323.14 K, 28044 kPa	1043.9
323.14 K, 28300 kPa	1044
323.14 K, 28359 kPa	1044
323.14 K, 28792 kPa	1044.3
323.14 K, 28843 kPa	1044.3
323.14 K, 28902 kPa	1044.3
323.14 K, 28941 kPa	1044.3
323.14 K, 29012 kPa	1044.3
323.14 K, 29875 kPa	1044.9
323.14 K, 29913 kPa	1045
323.14 K, 29948 kPa	1045.1
323.14 K, 29992 kPa	1045
323.14 K, 30269 kPa	1045.3
323.14 K, 30315 kPa	1045.2
323.14 K, 30353 kPa	1045.4
323.14 K, 30391 kPa	1045.3
323.14 K, 30431 kPa	1045.3
323.14 K, 30476 kPa	1045.2
323.14 K, 30514 kPa	1045.3
323.14 K, 32076 kPa	1046.4
323.14 K, 32110 kPa	1046.4
323.14 K, 32957 kPa	1046.8
323.14 K, 33000 kPa	1046.9
323.14 K, 33035 kPa	1046.8
323.14 K, 33078 kPa	1046.9
323.14 K, 33115 kPa	1046.9
323.14 K, 33350 kPa	1047
323.14 K, 33751 kPa	1047.3
323.14 K, 33878 kPa	1047.3
323.14 K, 33919 kPa	1047.4
323.14 K, 33970 kPa	1047.4
323.15 K, 3349 kPa	1027.1
323.15 K, 3467.5 kPa	1027.3
323.15 K, 3496.8 kPa	1027.3
323.15 K, 3562.1 kPa	1027.3
323.15 K, 5277.4 kPa	1028.8
323.15 K, 5278.3 kPa	1028.7
323.15 K, 5281.4 kPa	1028.8
323.15 K, 5284.5 kPa	1028.8
323.15 K, 5287 kPa	1028.7
323.15 K, 5288.9 kPa	1028.7
323.15 K, 5289.7 kPa	1028.8
323.15 K, 5290.8 kPa	1028.8
323.15 K, 5291.3 kPa	1028.8
323.15 K, 5291.6 kPa	1028.8
323.15 K, 5292 kPa	1028.8
323.15 K, 5292.5 kPa	1028.8
323.15 K, 5292.8 kPa	1028.8
323.15 K, 5293.4 kPa	1028.7
323.15 K, 5293.7 kPa	1028.9
323.15 K, 5293.9 kPa	1028.8
323.15 K, 5294 kPa	1028.7
323.15 K, 5294.2 kPa	1028.9
323.15 K, 5295.1 kPa	1028.9
323.15 K, 5295.9 kPa	1029
323.15 K, 5296.1 kPa	1028.7
323.15 K, 5296.6 kPa	1028.7
